The numbers were not newly measured in patent publication US12691099B2, “Oral formulations of Edaravone and method of manufacturing thereof” (BDR PHARMACEUTICALS INTERNATIONAL PRIVATE LIMITED, priority 2019, dated 2026), which cites them from elsewhere.

The solubility is how much of the substance goes into solution per volume.

Converted amounts (≈) assume the structure as drawn.

The conditions of data set [1]: poor solubility in water and lower lipid permeability.

Take `CC1=NN(c2ccccc2)C(=O)C1` [Edaravone, 3-methyl-1-phenyl-2-pyrazolin-5-one]: the solubility is 25 µg/mL (≈ 144 µM). Moreover, the BCS class result in data set [1] is listed as “Class IV”.
